# Experimental data from article PMC6024615, “Effect of Biliary Drainage on the Toxicity and Toxicokinetics of Amanita exitialis in Beagles” (Toxins, 2018).
# Like-named read-outs stand apart in the source and are kept apart here. Marks after values point to notes of the source that are not given here.
# Columns and labels:
# [1] = Peptide toxins in the blood / toxicokinetics in beagles with biliary drainage; format: in vivo, beagle dogs; parameters: Dose normalized AUC (0–∞) / Dose normalized Cmax: unit not given here; settings: for T1/2 / AUC (0–∞) / CL/F / Cmax / Dose normalized AUC (0–∞) / Dose normalized Cmax / MRT (0–∞) / Tmax / Vd/F: biliary drainage, plasma, mean ± SD; for T1/2: UPLC-ESI-MS/MS; for Vd/F: male, beagle, dog, read-out: Vz/F
# Description: The study was approved by National Institute of Occupational Health and Poison Control review board for animal experiments. Twenty-four male beagles (age, 8–10 months; weight, 10 ± 1 kg) were obtained from Beijing Institute of Xieerxin Biology Resource (Beijing, China). They were randomly divided into four groups of six animals each: control, biliary drainage, and 20 and 60 mg/kg with biliary drainage groups. The biliary drainage operation was conducted in all groups barring the control group. The dogs were dressed in homemade underwear, coats, and Elizabeth circles for a week to ensure pre-experimental acclimatization (Figure S8a–c). After determining the baseline values for biochemical indicators, the dogs were fasted for 24 h but received water ad libitum. They were anesthetized by intravenous administration of pentobarbital sodium (3%, 1 mL/kg) during the surgery. A temperature of 38–39 °C was maintained with a warming mat. After skin preservation and sterilization, the abdominal cavity was opened through the central abdomen. The abdomen was explored and blunt dissection of the common bile duct was performed (Figure S8d). The common bile duct and its branches were ligated from the intestinal side. A 7.0-Fr drainage catheter (COOK, Bloomington, IN, USA) was percutaneously inserted into the gallbladder, and a medical drainage bag was connected to the drainage catheter coming out of the abdominal cavity. Each opened layer, including the peritoneum, abdominal wall muscle, and skin, was closed with suture. The operative incision was protected with sterile gauze and a bandage, and the dogs were dressed in homemade underwear, coats, and Elizabeth circles. The drainage bag was placed in the pocket of the coat (Figure S8e). After the anesthetic wore off, the dogs were placed in cages, and food and water were provided ad libitum. The operative incision was sterilized with iodophor twice a day until stitches were removed six days after surgery. The drainage bag was replaced every day. On the eighth day after surgery, the 20 and 60 mg/kg with biliary drainage groups were orally administered a lyophilized powder of Amanita exitialis in starch capsules. In control and bile drainage group, the beagle dogs were fed with empty capsules. Immediately after dosing, the animals were placed in their cages, and food and water were provided ad libitum. Dogs were sacrificed with an overdose of sodium pentobarbital at the end of the experiment. All procedures were performed according to the ethical standards of the National Institutes of Health Guide for Animal Welfare and approved by the Institutional Animal Care and Use Committee (EAWE-2017-005).
# Peptide toxins in blood and urine samples were analyzed as described previously. Bile samples from Days 0–1, Days 1–2, Days 2–3, and Days 3–4 were collected and stored in medical drainage bags and the bile volume was recorded. Plasma and urine samples were stored at 2–8 °C until analysis for peptide toxins.
# UPLC and MS/MS parameters were as described in our previous study. The limit of detection and limit of quantitation of each toxin in the bile were 0.03 mg/kg and 0.5 mg/kg, respectively.
# Toxicokinetic parameters were described in our previous study. Measurement data are reported as mean ± standard deviation values and enumeration data are reported as percentage (%). […] SPSS 22.0 (IBM Corporation, Armonk, NY, USA, 2015) was used for statistical analysis. The criterion for statistical significance was p ≤ 0.05. Except for the biliary drainage operation, the animals and methods in our present study are in accordance with our previously published study. Thus, by directly comparing the data from this study with those from our published studies on Amanita exitialis-exposed beagles without biliary drainage, we can evaluate the impact of biliary drainage on the toxicity and toxicokinetics of Amanita exitialis in beagles.
# [2] = cited from earlier work
# Description: The difference in detectable time in the urine can be explained by the low level of internal exposure (amatoxins in the blood). […] The daily amounts of peptide toxins excreted in urine in beagles without biliary drainage(mg). Time after α-Amanitin β-Amanitin Phallacidin ingestion 20 mg/kg 60 mg/kg 20 mg/kg 60 mg/kg 20 mg/kg 60 mg/kg group group group group group group 0-1d 0.0379 0.0593 0.0156 0.0251 0.0035 0.0088 (97.9%) (92.8%) (99.9%) (94.7%) (94.2%) (76%) 1-2d 0.0388 0.0618 0.01567 0.0255 0.0037 0.0110 (99.995%) (97.5%) (100%) (96.2%) (100%) (93%) 2-3d 0.0002 0.0626 0 0.0260 0 0.0115 (100%) (99.4%) (100%) (98.2%) (100%) (97.3%) 3-4d 0 0.063 ...
# [3] = 20 mg/kg Amanita exitialis oral
# [4] = 60 mg/kg Amanita exitialis oral
compound,measurement,setting,value
CC[C@H](C)[C@@H]1NC(=O)CNC(=O)[C@@H]2Cc3c([nH]c4cc(O)ccc34)[S@+]([O-])C[C@H](NC(=O)CNC1=O)C(=O)N[C@@H](CC(=O)O)C(=O)N1C[C@H](O)C[C@H]1C(=O)N[C@@H]([C@@H](C)[C@@H](O)CO)C(=O)N2 [β-amanitin],detection rate of peptide toxins in blood,"[1]; 0 h after ingestion, 20 mg/kg with biliary drainage group",0%
same,detection rate of peptide toxins in blood,"[1]; 0 h after ingestion, 60 mg/kg with biliary drainage group",0%
same,T1/2,[1]; [3],1.29 ± 1.07 h
same,AUC (0–∞),[1]; [3],3.24 ± 1.49 µg·h/L
same,CL/F,[1]; [3],10.7 ± 7 mL/min/kg
same,Cmax,[1]; [3],0.85 ± 0.33 µg/L
same,Dose normalized AUC (0–∞),[1]; [3],179 ± 82.4
same,Dose normalized Cmax,[1]; [3],57 ± 18.3
same,MRT (0–∞),[1]; [3],3.83 ± 1.02 h
same,Tmax,[1]; [3],1.63 ± 0.48 h
same,T1/2,[1]; [4],1.54 ± 0.71 h
same,AUC (0–∞),[1]; [4],"15.75 ± 4.27 ^a,b µg/L × h"
same,CL/F,[1]; [4],5.5 ± 1.5 mL/min/kg
same,Cmax,[1]; [4],"5.18 ± 1.32 ^a,b µg/L"
same,Dose normalized AUC (0–∞),[1]; [4],222.3 ± 79.2
same,Dose normalized Cmax,[1]; [4],96 ± 24.4
same,MRT (0–∞),[1]; [4],3.89 ± 0.46 h
same,Tmax,[1]; [4],1.25 ± 0.29 h
same,detection rate of peptide toxins in blood,"[1]; 0.25 h after ingestion, 20 mg/kg with biliary drainage group",0%
same,detection rate of peptide toxins in blood,"[1]; 0.25 h after ingestion, 60 mg/kg with biliary drainage group",50%
same,detection rate of peptide toxins in blood,"[1]; 0.5 h after ingestion, 20 mg/kg with biliary drainage group",33%
same,detection rate of peptide toxins in blood,"[1]; 0.5 h after ingestion, 60 mg/kg with biliary drainage group",66%
same,detection rate of peptide toxins in blood,"[1]; 1 h after ingestion, 20 mg/kg with biliary drainage group",100%
same,detection rate of peptide toxins in blood,"[1]; 1 h after ingestion, 60 mg/kg with biliary drainage group",100%
same,detection rate of peptide toxins in blood,"[1]; 1.5 h after ingestion, 20 mg/kg with biliary drainage group",100%
same,detection rate of peptide toxins in blood,"[1]; 1.5 h after ingestion, 60 mg/kg with biliary drainage group",100%
same,detection rate of peptide toxins in blood,"[1]; 2 h after ingestion, 20 mg/kg with biliary drainage group",100%
same,detection rate of peptide toxins in blood,"[1]; 2 h after ingestion, 60 mg/kg with biliary drainage group",100%
same,detection rate of peptide toxins in blood,"[1]; 3 h after ingestion, 20 mg/kg with biliary drainage group",100%
same,detection rate of peptide toxins in blood,"[1]; 3 h after ingestion, 60 mg/kg with biliary drainage group",100%
same,detection rate of peptide toxins in blood,"[1]; 4 h after ingestion, 20 mg/kg with biliary drainage group",100%
same,detection rate of peptide toxins in blood,"[1]; 4 h after ingestion, 60 mg/kg with biliary drainage group",100%
same,detection rate of peptide toxins in blood,"[1]; 5 h after ingestion, 20 mg/kg with biliary drainage group",100%
same,detection rate of peptide toxins in blood,"[1]; 5 h after ingestion, 60 mg/kg with biliary drainage group",100%
same,detection rate of peptide toxins in blood,"[1]; 6 h after ingestion, 20 mg/kg with biliary drainage group",83%
same,detection rate of peptide toxins in blood,"[1]; 6 h after ingestion, 60 mg/kg with biliary drainage group",100%
same,detection rate of peptide toxins in blood,"[1]; 8 h after ingestion, 20 mg/kg with biliary drainage group",83%
same,detection rate of peptide toxins in blood,"[1]; 8 h after ingestion, 60 mg/kg with biliary drainage group",100%
same,detection rate of peptide toxins in blood,"[1]; 10 h after ingestion, 20 mg/kg with biliary drainage group",66%
same,detection rate of peptide toxins in blood,"[1]; 10 h after ingestion, 60 mg/kg with biliary drainage group",100%
same,detection rate of peptide toxins in blood,"[1]; 12 h after ingestion, 20 mg/kg with biliary drainage group",33%
same,detection rate of peptide toxins in blood,"[1]; 12 h after ingestion, 60 mg/kg with biliary drainage group",100%
same,detection rate of peptide toxins in blood,"[1]; 24 h after ingestion, 20 mg/kg with biliary drainage group",0%
same,detection rate of peptide toxins in blood,"[1]; 24 h after ingestion, 60 mg/kg with biliary drainage group",33%
same,detection rate of peptide toxins in blood,"[1]; 36 h after ingestion, 20 mg/kg with biliary drainage group",0%
same,detection rate of peptide toxins in blood,"[1]; 36 h after ingestion, 60 mg/kg with biliary drainage group",0%
same,detection rate of peptide toxins in blood,"[1]; 48 h after ingestion, 20 mg/kg with biliary drainage group",0%
same,detection rate of peptide toxins in blood,"[1]; 48 h after ingestion, 60 mg/kg with biliary drainage group",0%
same,time at which toxins were detected in plasma after ingestion,"[1]; beagles with biliary drainage, oral Amanita exitialis",30 min
same,Vd/F,[1]; [3],0.78 ± 0.63 L/kg
same,Vd/F,[1]; [4],1.38 ± 0.59 L/kg
same,"daily amount excreted in urine, without biliary drainage","[2]; 0-1d, 20 mg/kg group",0.0156 mg
same,"percentage in parentheses, urine, without biliary drainage","[2]; 0-1d, 20 mg/kg group",99.9%
same,"daily amount excreted in urine, without biliary drainage","[2]; 0-1d, 60 mg/kg group",0.0251 mg
same,"percentage in parentheses, urine, without biliary drainage","[2]; 0-1d, 60 mg/kg group",94.7%
same,"Accumulative amount excreted in urine, without biliary drainage",[2]; 20 mg/kg group,0.0157 mg
same,"percentage in parentheses, Accumulative amount, urine, without biliary drainage",[2]; 20 mg/kg group,100%
same,"Accumulative amount excreted in urine, without biliary drainage","[2]; 20 mg/kg group, listed as β-Amanitin",0.01567 mg
same,"percentage in parentheses, Accumulative amount, urine, without biliary drainage",[2]; 60 mg/kg group,100%
same,"percentage in parentheses, urine, without biliary drainage","[2]; 1-2d, 20 mg/kg group",100%
same,"daily amount excreted in urine, without biliary drainage","[2]; 1-2d, 60 mg/kg group",0.0255 mg
same,"percentage in parentheses, urine, without biliary drainage","[2]; 1-2d, 60 mg/kg group",96.2%
same,"daily amount excreted in urine, without biliary drainage","[2]; 2-3d, 20 mg/kg group",0 mg
same,"percentage in parentheses, urine, without biliary drainage","[2]; 2-3d, 20 mg/kg group",100%
same,"daily amount excreted in urine, without biliary drainage","[2]; 2-3d, 60 mg/kg group",0.0260 mg
same,"percentage in parentheses, urine, without biliary drainage","[2]; 2-3d, 60 mg/kg group",98.2%
same,"daily amount excreted in urine, without biliary drainage","[2]; 3-4d, 20 mg/kg group",0 mg
same,"percentage in parentheses, urine, without biliary drainage","[2]; 3-4d, 20 mg/kg group",100%
same,"daily amount excreted in urine, without biliary drainage","[2]; 3-4d, 60 mg/kg group",0.0264 mg
same,"percentage in parentheses, urine, without biliary drainage","[2]; 3-4d, 60 mg/kg group",100%
